{"source": "patent US20250230172A1", "about": "(Vanqua Bio, Inc., priority 2021, published 2025)", "target": "T1, GCase (Homo sapiens, UniProt P04062)", "T1 construct": "endogenous in cells; host or cells: HeLa cells", "T1 sequence (P04062 40-536)": "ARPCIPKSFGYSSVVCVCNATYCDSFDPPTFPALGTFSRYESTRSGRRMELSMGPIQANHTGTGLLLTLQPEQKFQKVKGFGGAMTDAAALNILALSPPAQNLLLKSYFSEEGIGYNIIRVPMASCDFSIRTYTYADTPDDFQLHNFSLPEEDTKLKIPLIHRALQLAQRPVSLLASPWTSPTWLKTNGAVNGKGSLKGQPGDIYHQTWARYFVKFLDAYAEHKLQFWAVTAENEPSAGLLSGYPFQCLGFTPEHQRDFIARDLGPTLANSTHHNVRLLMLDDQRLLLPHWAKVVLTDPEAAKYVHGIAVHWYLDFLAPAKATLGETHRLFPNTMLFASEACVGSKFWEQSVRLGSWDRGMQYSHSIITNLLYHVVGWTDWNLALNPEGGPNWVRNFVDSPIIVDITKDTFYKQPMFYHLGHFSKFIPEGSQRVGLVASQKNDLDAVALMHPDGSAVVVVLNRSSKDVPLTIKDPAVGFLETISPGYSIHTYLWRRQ", "experiment": "live cell PFB assay in HELA cells for activation of GCase", "format": "cell-based", "procedure": "Exemplary compounds were evaluated for activation of GCase in a live cell PFB assay in HELA cells (essentially as described in Ysselstein et al., “LRRK2 kinase activity regulates lysosomal glucocerebrosidase in neurons derived from Parkinson's disease patients” Nature Communications (2019) 10:5570). […] EC50 ranges: A: <10 μM; B: >10-50 μM; C: >50-100 μM; D: >100 μM."}
{"smiles": "FC(F)Cn1ncc2ncc(N[C@@H]3C[C@@H]4CN(c5cccnc5C(F)(F)F)C[C@@H]4C3)nc21", "note": "[Compound 36, (3aR,5S,6aS)—N-[1-(2,2-difluoroethyl)-1H-pyrazolo[3,4-b]pyrazin-6-yl]-2-[2-(trifluoromethyl)pyridin-3-yl]-octahydrocyclopenta[c]pyrrol-5-amine]", "values": [{"measurement": "EC50", "result": "< 10", "unit": "µM"}]}
{"smiles": "FC(F)Cn1ncc2ncc(N[C@H]3C[C@@H]4CN(c5cccnc5C(F)(F)F)C[C@@H]4C3)nc21", "note": "[Compound 37, (3aR,5R,6aS)—N-[1-(2,2-difluoroethyl)-1H-pyrazolo[3,4-b]pyrazin-6-yl]-2-[2-(trifluoromethyl)pyridin-3-yl]-octahydrocyclopenta[c]pyrrol-5-amine]", "values": [{"measurement": "EC50", "result": "< 10", "unit": "µM"}]}
{"smiles": "FC(F)Cn1ncc2ncc(N[C@@H]3C[C@@H]4CN(c5ncccc5C(F)(F)F)C[C@@H]4C3)nc21", "note": "[Compound 38, (3aR,5S,6aS)—N-[1-(2,2-difluoroethyl)-1H-pyrazolo[3,4-b]pyrazin-6-yl]-2-[3-(trifluoromethyl)pyridin-2-yl]-octahydrocyclopenta[c]pyrrol-5-amine]", "values": [{"measurement": "EC50", "result": "< 10", "unit": "µM"}]}
{"smiles": "FC(F)Cn1ncc2ncc(N[C@@H]3C[C@@H]4CN(c5ccc(C(F)(F)F)nc5)C[C@@H]4C3)nc21", "note": "[Compound 39, (3aR,5S,6aS)—N-[1-(2,2-difluoroethyl)-1H-pyrazolo[3,4-b]pyrazin-6-yl]-2-[6-(trifluoromethyl)pyridin-3-yl]-octahydrocyclopenta[c]pyrrol-5-amine]", "values": [{"measurement": "EC50", "result": "< 10", "unit": "µM"}]}
{"smiles": "FC(F)Cn1ncc2ncc(N[C@H]3C[C@@H]4CN(c5ccc(C(F)(F)F)cn5)C[C@@H]4C3)nc21", "note": "[Compound 40, (3aR,5S,6aS)—N-[1-(2,2-difluoroethyl)-1H-pyrazolo[3,4-b]pyrazin-6-yl]-2-[5-(trifluoromethyl)pyridin-2-yl]-octahydrocyclopenta[c]pyrrol-5-amine]", "values": [{"measurement": "EC50", "result": "10 to 50", "unit": "µM"}]}
{"smiles": "FC(F)Cn1ncc2ncc(NC3C[C@@H]4CN(c5ncccc5C(F)(F)F)C[C@@H]4C3)nc21", "note": "(stereo partly drawn) [Compound 41, (3aR,5S,6aS)—N-[1-(2,2-difluoroethyl)-1H-pyrazolo[3,4-b]pyrazin-6-yl]-2-[3-(trifluoromethyl)pyridin-2-yl]-octahydrocyclopenta[c]pyrrol-5-amine]", "values": [{"measurement": "EC50", "result": "> 100", "unit": "µM"}]}
{"smiles": "FC(F)Cn1ncc2ncc(N[C@H]3C[C@@H]4CN(c5ccc(C(F)(F)F)nc5)C[C@@H]4C3)nc21", "note": "[Compound 42, (3aR,5S,6aS)—N-[1-(2,2-difluoroethyl)-1H-pyrazolo[3,4-b]pyrazin-6-yl]-2-[6-(trifluoromethyl)pyridin-3-yl]-octahydrocyclopenta[c]pyrrol-5-amine]", "values": [{"measurement": "EC50", "result": "10 to 50", "unit": "µM"}]}
{"smiles": "FC(F)Cn1ncc2ncc(N3C[C@H]4CN(c5cc(C(F)(F)F)ccn5)C[C@H]4C3)nc21", "note": "[Compound 43, rac-2-[(3aR,6aS)-5-[1-(2,2-difluoroethyl)-1H-pyrazolo[3,4-b]pyrazin-6-yl]-octahydropyrrolo[3,4-c]pyrrol-2-yl]-4-(trifluoromethyl)pyridine]", "values": [{"measurement": "EC50", "result": "< 10", "unit": "µM"}]}
{"smiles": "FC(F)Cn1ncc2ncc(N3C[C@H]4CN(c5cccc(C(F)(F)F)n5)C[C@H]4C3)nc21", "note": "[Compound 45, rac-2-[(3aR,6aS)-5-[1-(2,2-difluoroethyl)-1H-pyrazolo[3,4-b]pyrazin-6-yl]-octahydropyrrolo[3,4-c]pyrrol-2-yl]-6-(trifluoromethyl)pyridine]", "values": [{"measurement": "EC50", "result": "> 100", "unit": "µM"}]}
{"smiles": "FC(F)Cn1ncc2ncc(N3C[C@H]4CN(c5ccc(C(F)(F)F)nc5)C[C@H]4C3)nc21", "note": "[Compound 47, rac-5-[(3aR,6aS)-5-[1-(2,2-difluoroethyl)-1H-pyrazolo[3,4-b]pyrazin-6-yl]-octahydropyrrolo[3,4-c]pyrrol-2-yl]-2-(trifluoromethyl)pyridine]", "values": [{"measurement": "EC50", "result": "10 to 50", "unit": "µM"}]}
{"smiles": "FC(F)Cn1ncc2ncc(N3C[C@@H]4CN(c5cccnc5C(F)(F)F)C[C@@H]4C3)nc21", "note": "[Compound 49, rac-3-[(3aR,6aS)-5-[1-(2,2-difluoroethyl)-1H-pyrazolo[3,4-b]pyrazin-6-yl]-octahydropyrrolo[3,4-c]pyrrol-2-yl]-2-(trifluoromethyl)pyridine]", "values": [{"measurement": "EC50", "result": "10 to 50", "unit": "µM"}]}
{"smiles": "FC(F)Cn1ncc2ncc(N[C@@H]3C[C@@H]4CN(c5ccc(C(F)(F)F)cn5)C[C@@H]4C3)nc21", "note": "[Compound 51, (3aR,5S,6aS)—N-[1-(2,2-difluoroethyl)-1H-pyrazolo[3,4-b]pyrazin-6-yl]-2-[5-(trifluoromethyl)pyridin-2-yl]-octahydrocyclopenta[c]pyrrol-5-amine]", "values": [{"measurement": "EC50", "result": "< 10", "unit": "µM"}]}
{"smiles": "FC(F)Cn1ncc2ncc(N[C@@H]3C[C@@H]4CN(c5cncc(C(F)(F)F)c5)C[C@@H]4C3)nc21", "note": "[Compound 52, (3aR,5S,6aS)—N-[1-(2,2-difluoroethyl)-1H-pyrazolo[3,4-b]pyrazin-6-yl]-2-[5-(trifluoromethyl)pyridin-3-yl]-octahydrocyclopenta[c]pyrrol-5-amine]", "values": [{"measurement": "EC50", "result": "< 10", "unit": "µM"}]}
{"smiles": "FC(F)Cn1ncc2ncc(N[C@H]3C[C@@H]4CN(c5cncc(C(F)(F)F)c5)C[C@@H]4C3)nc21", "note": "[Compound 53, (3aR,5S,6aS)—N-[1-(2,2-difluoroethyl)-1H-pyrazolo[3,4-b]pyrazin-6-yl]-2-[5-(trifluoromethyl)pyridin-3-yl]-octahydrocyclopenta[c]pyrrol-5-amine]", "values": [{"measurement": "EC50", "result": "< 10", "unit": "µM"}]}
{"smiles": "CN(c1cnc2cnn(CC(F)F)c2n1)[C@H]1C[C@@H]2CN(c3cncc(C(F)(F)F)c3)C[C@@H]2C1", "note": "[Compound 54, (3aR,5S,6aS)—N-[1-(2,2-difluoroethyl)-1H-pyrazolo[3,4-b]pyrazin-6-yl]-N-methyl-2-[5-(trifluoromethyl)pyridin-3-yl]-octahydrocyclopenta[c]pyrrol-5-amine]", "values": [{"measurement": "EC50", "result": "10 to 50", "unit": "µM"}]}
{"smiles": "FC(F)Cn1ncc2ncc(-n3cc4c(n3)CCN(c3ncccc3C(F)(F)F)C4)nc21", "note": "[Compound 63, 1-(2,2-difluoroethyl)-6-(5-(3-(trifluoromethyl)pyridin-2-yl)-4,5,6,7-tetrahydro-2H-pyrazolo[4,3-c]pyridin-2-yl)-1H-pyrazolo[3,4-b]pyrazine]", "values": [{"measurement": "EC50", "result": "< 10", "unit": "µM"}]}
{"smiles": "FC(F)Cn1ncc2ncc(-n3ncc4c3CCN(c3ncccc3C(F)(F)F)C4)nc21", "note": "[Compound 64, 1-(2,2-difluoroethyl)-6-(5-(3-(trifluoromethyl)pyridin-2-yl)-4,5,6,7-tetrahydro-1H-pyrazolo[4,3-c]pyridin-1-yl)-1H-pyrazolo[3,4-b]pyrazine]", "values": [{"measurement": "EC50", "result": "10 to 50", "unit": "µM"}]}
{"smiles": "O=C1C2CN(c3cnc4cnn(CC(F)F)c4n3)CCC2CN1c1cccc(C(F)(F)F)n1", "note": "(stereo not shown) [Compound 65, 5-(1-(2,2-difluoroethyl)-1H-pyrazolo[3,4-b]pyrazin-6-yl)-2-(6-(trifluoromethyl)pyridin-2-yl)octahydro-3H-pyrrolo[3,4-c]pyridin-3-one]", "values": [{"measurement": "EC50", "result": "< 10", "unit": "µM"}]}
{"smiles": "O=C1CC2CN(c3cccc(C(F)(F)F)n3)CC2CN1c1cnc2cnn(CC(F)F)c2n1", "note": "(stereo not shown) [Compound 66, 5-(1-(2,2-difluoroethyl)-1H-pyrazolo[3,4-b]pyrazin-6-yl)-2-(6-(trifluoromethyl)pyridin-2-yl)octahydro-6H-pyrrolo[3,4-c]pyridin-6-one]", "values": [{"measurement": "EC50", "result": "10 to 50", "unit": "µM"}]}
{"smiles": "O=C1C2CCN(c3cnc4cnn(CC(F)F)c4n3)CC2CN1c1cccc(C(F)(F)F)n1", "note": "(stereo not shown) [Compound 67, 5-(1-(2,2-difluoroethyl)-1H-pyrazolo[3,4-b]pyrazin-6-yl)-2-(6-(trifluoromethyl)pyridin-2-yl)octahydro-1H-pyrrolo[3,4-c]pyridin-1-one]", "values": [{"measurement": "EC50", "result": "< 10", "unit": "µM"}]}
{"smiles": "FC(F)Cn1ncc2ncc(N3CC[C@H]4CN(c5ccc(C(F)(F)F)cn5)C[C@@H]4C3)nc21", "note": "[Compound 69, 1-(2,2-difluoroethyl)-6-((3aS,7aR)-2-(5-(trifluoromethyl)pyridin-2-yl)octahydro-5H-pyrrolo[3,4-c]pyridin-5-yl)-1H-pyrazolo[3,4-b]pyrazine]", "values": [{"measurement": "EC50", "result": "10 to 50", "unit": "µM"}]}
{"smiles": "COc1cncc(N2C[C@H]3C[C@H](Nc4cnc5cnn(CC(F)F)c5n4)C[C@H]3C2)n1", "note": "[Compound 76, 1-(2,2-difluoroethyl)-N-((3aR,5s,6aS)-2-(6-methoxypyrazin-2-yl)octahydrocyclopenta[c]pyrrol-5-yl)-1H-pyrazolo[3,4-b]pyrazin-6-amine]", "values": [{"measurement": "EC50", "result": "10 to 50", "unit": "µM"}]}
{"smiles": "COc1cnc(N2C[C@H]3C[C@H](Nc4cnc5cnn(CC(F)F)c5n4)C[C@H]3C2)cn1", "note": "[Compound 77, 1-(2,2-difluoroethyl)-N-((3aR,5s,6aS)-2-(5-methoxypyrazin-2-yl)octahydrocyclopenta[c]pyrrol-5-yl)-1H-pyrazolo[3,4-b]pyrazin-6-amine]", "values": [{"measurement": "EC50", "result": "> 100", "unit": "µM"}]}
{"smiles": "FC(F)Cn1ncc2ncc(N[C@H]3C[C@@H]4CN(c5cncc(C(F)(F)F)n5)C[C@@H]4C3)nc21", "note": "[Compound 78, 1-(2,2-difluoroethyl)-N-((3aR,5s,6aS)-2-(6-(trifluoromethyl)pyrazin-2-yl)octahydrocyclopenta[c]pyrrol-5-yl)-1H-pyrazolo[3,4-b]pyrazin-6-amine]", "values": [{"measurement": "EC50", "result": "< 10", "unit": "µM"}]}
{"smiles": "FC(F)Cn1ncc2ncc(N[C@H]3C[C@@H]4CN(c5cnc(C(F)(F)F)cn5)C[C@@H]4C3)nc21", "note": "[Compound 79, 1-(2,2-difluoroethyl)-N-((3aR,5s,6aS)-2-(5-(trifluoromethyl)pyrazin-2-yl)octahydrocyclopenta[c]pyrrol-5-yl)-1H-pyrazolo[3,4-b]pyrazin-6-amine]", "values": [{"measurement": "EC50", "result": "10 to 50", "unit": "µM"}]}
